Structures are written as SMILES. Entries after “also recorded” stand apart in the source; their conditions may differ.

Test [1] has as its target T1, human CB1 receptor (Homo sapiens, UniProt P21554). Particulars: association at 30 °C.
Test [2] has as its target T1, human CB1 receptor. As to the kind of experiment: [35S]GTPγS binding antagonism assay, hCB1 HEK-293 membranes. Type of test: biochemical. Conditions: recombinant human CB1 receptors on HEK-293 cell membranes, 30 °C; SD (n = 2) or SEM (n ≥ 3). Background: GTPγS resists hydrolysis and so accumulates on activated G proteins.
For test [3], the target named is T1, human CB1 receptor. In words: biochemical. Type of test: binding. Conditions: for residence time: read-out: RT (residence time).
For test [4], the target named is T1, human CB1 receptor.

T1 sequence (P21554 whole entry): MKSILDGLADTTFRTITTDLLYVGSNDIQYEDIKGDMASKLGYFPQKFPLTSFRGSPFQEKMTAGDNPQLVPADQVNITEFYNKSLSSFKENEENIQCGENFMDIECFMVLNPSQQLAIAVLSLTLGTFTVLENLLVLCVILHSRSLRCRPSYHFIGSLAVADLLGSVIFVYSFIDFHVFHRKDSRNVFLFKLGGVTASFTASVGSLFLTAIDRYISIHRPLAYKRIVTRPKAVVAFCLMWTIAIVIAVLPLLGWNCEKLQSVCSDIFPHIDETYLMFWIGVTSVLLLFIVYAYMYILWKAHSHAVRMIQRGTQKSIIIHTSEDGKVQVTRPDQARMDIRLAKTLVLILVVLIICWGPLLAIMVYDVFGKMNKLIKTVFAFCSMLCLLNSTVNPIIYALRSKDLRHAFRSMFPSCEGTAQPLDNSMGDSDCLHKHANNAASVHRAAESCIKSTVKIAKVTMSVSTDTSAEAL

In the case of `CCCCCCC(C)(C)c1ccc([C@@H]2C[C@H](O)CC[C@H]2CCCO)c(O)c1` [CP55940], at human CB1 receptor [1], the “time at which binding approached equilibrium” value is recorded as “approximately 25 min”.

Consider `Cc1c(C(=O)NN2CCCCC2)nc(-c2ccc(Cl)cc2Cl)n1-c1ccc(OS(=O)(=O)CCC(C)C)cc1` [11g, 4-(2-(2,4-Dichlorophenyl)-5-methyl-4-(piperidin-1-ylcarbamoyl)-1H-imidazol-1-yl)phenyl 3-methylbutane-1-sulfonate], for which, at human CB1 receptor [2], the “[35S]GTPγS binding pIC50 ± SD or SEM” value is reported as 8.9 ± 0.1.

Take `CCCCS(=O)(=O)Oc1ccc(-n2c(-c3ccc(Cl)cc3Cl)nc(C(=O)NN3CCCCC3)c2C)cc1` [11e, 4-(2-(2,4-Dichlorophenyl)-5-methyl-4-(piperidin-1-ylcarbamoyl)-1H-imidazol-1-yl)phenyl butane-1-sulfonate]: the “[35S]GTPγS binding pIC50 ± SD or SEM” value at human CB1 receptor [2] is 8.9 ± 0.05.

By koff is commonly meant the rate constant with which the complex falls apart. A low value points to slow dissociation. The term kon denotes the rate constant with which the complex forms. A low value points to slow association. With `Cc1c(C(=O)Nc2ccc(F)nc2)nc(-c2ccc(Cl)cc2Cl)n1-c1ccc(OS(=O)(=O)CCC(F)(F)F)cc1` [14f, 4-(2-(2,4-Dichlorophenyl)-4-(6-fluoropyridin-3-ylcarbamoyl)-5-methyl-1H-imidazol-1-yl)phenyl 3,3,3-trifluoropropane-1-sulfonate], at human CB1 receptor [3], the koff amounted to 0.00027 s⁻¹, the kon amounted to 720000 M⁻¹ s⁻¹ and the residence time is 62 ± 10 min.

Turning to `CCCS(=O)(=O)Oc1ccc(-n2c(-c3ccc(Cl)cc3Cl)nc(C(=O)NN3CCCCC3)c2C)cc1` [11b, 4-(2-(2,4-Dichlorophenyl)-5-methyl-4-(piperidin-1-ylcarbamoyl)-1H-imidazol-1-yl)phenyl propane-1-sulfonate], on human CB1 receptor [3], the koff turned out to be 0.00022 s⁻¹, the kon is 300000 M⁻¹ s⁻¹ and the residence time came out at 78 ± 5 min.

In the case of `Cc1c(C(=O)Nc2ccc(C(F)(F)F)cn2)nc(-c2ccc(Cl)cc2Cl)n1-c1ccc(OS(=O)(=O)CCC(F)(F)F)cc1` [compound 28, 4-(2-(2,4-Dichlorophenyl)-5-methyl-4-(5-(trifluoromethyl)pyridin-2-ylcarbamoyl)-1H-imidazol-1-yl)phenyl 3,3,3-trifluoropropane-1-sulfonate], at human CB1 receptor [3], the koff is 7.8e-05 s⁻¹, the on-rate constant (kon) worked out at 350000 M⁻¹ s⁻¹ and the residence time turned out to be 260 ± 56 min. Besides, at human CB1 receptor [4], the “activity of compound alone (absence of CP55940)” value is “inverse agonism” and the “type of antagonism of CP55940 action” value is “insurmountable antagonism; also recorded: insurmountability”.

The values above are taken from article PMC5734604 (Journal of Medicinal Chemistry, 2017).
